Laboratory results published in PubChem BioAssay AID248 (DTP/NCI, 2004).
Inconclusive results and toxic doses are left out.

Tested on: L1210 leukemia ip in BDF1 mice, survival T/C
Experiment: NCI In Vivo Anticancer Drug Screen. Data for tumor model L1210 Leukemia (intraperitoneal) in B6D2F1 (BDF1) mice
Settings: endpoint: mean survival time, higher = longer survival
Method in brief: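 Value reflects the ratio of survival in compound-treated mice to survival in vehicle-treated controls, with both groups carrying the same transplanted tumor.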

SMILES: COc1ccc2c3c1OC1C(O)CCC4C(C2)N(C)CCC341 (stereo not drawn)
- T/C (dose: 75.0 mg/kg/injection, schedule: Q01DX001 (ip), vehicle: saline): 92 % of control
- T/C (dose: 100.0 mg/kg/injection, schedule: Q01DX001 (ip), vehicle: saline with Tween-80): 102 % of control
- T/C (dose: 150.0 mg/kg/injection, schedule: Q01DX001 (ip), vehicle: saline): 94 % of control
- T/C (dose: 200.0 mg/kg/injection, schedule: Q01DX001 (ip), vehicle: saline with Tween-80): 102 % of control
- T/C (dose: 300.0 mg/kg/injection, schedule: Q01DX001 (ip), vehicle: saline): 101 % of control

SMILES: COc1cc(CN(C)C2CCCCC2)cc(OC)c1OC
- T/C (dose: 6.25 mg/kg/injection, schedule: Q01DX009 (ip), vehicle: saline): 103 % of control
- T/C (dose: 12.5 mg/kg/injection, schedule: Q01DX009 (ip), vehicle: saline): 103 % of control
- T/C (dose: 25.0 mg/kg/injection, schedule: Q01DX009 (ip), vehicle: saline): 100 % of control
- T/C (dose: 25.0 mg/kg/injection, schedule: Q04DX003 (ip), vehicle: saline): 97 % of control
- T/C (dose: 50.0 mg/kg/injection, schedule: Q01DX009 (ip), vehicle: saline): 94 % of control
- T/C (dose: 50.0 mg/kg/injection, schedule: Q04DX003 (ip), vehicle: saline): 103 % of control
- T/C (dose: 100.0 mg/kg/injection, schedule: Q01DX009 (ip), vehicle: saline): 90 % of control
- T/C (dose: 100.0 mg/kg/injection, schedule: Q04DX003 (ip), vehicle: saline): 100 % of control

SMILES: N#Cc1ccc(N=S=O)cc1
- T/C (dose: 100.0 mg/kg/injection, schedule: Q04DX002 (ip), vehicle: saline with Tween-80): 105 % of control
- T/C (dose: 200.0 mg/kg/injection, schedule: Q04DX002 (ip), vehicle: saline with Tween-80): 112 % of control

SMILES: CCOC1=C(N2CC2)C(=O)C(OCC)=C(N2CC2)C1=O
- T/C (dose: 0.1 mg/kg/injection, schedule: Q01DX009 (ip), vehicle: saline): 109 % of control
- T/C (dose: 0.1 mg/kg/injection, schedule: Q01DX Z (ip), vehicle: carboxymethylcellulose (CMC)): 105 % of control
- T/C (dose: 0.25 mg/kg/injection, schedule: Q01DX001 (ip), vehicle: saline): 105 % of control
- T/C (dose: 0.25 mg/kg/injection, schedule: Q01DX009 (ip), vehicle: saline): 107 % of control
- T/C (dose: 0.25 mg/kg/injection, schedule: Q01DX Z (ip), vehicle: saline): 118 % of control
- T/C (dose: 0.3 mg/kg/injection, schedule: Q01DX Z (ip), vehicle: carboxymethylcellulose (CMC)): 105 % of control
- T/C (dose: 0.31 mg/kg/injection, schedule: Q01DX Z (ip), vehicle: saline): 110 % of control
- T/C (dose: 0.47 mg/kg/injection, schedule: Q01DX Z (ip), vehicle: saline): 121 % of control
- T/C (dose: 0.5 mg/kg/injection, schedule: Q01DX001 (ip), vehicle: saline): 103 % of control
- T/C (dose: 0.5 mg/kg/injection, schedule: Q01DX009 (ip), vehicle: saline): 109 % of control
- T/C (dose: 0.5 mg/kg/injection, schedule: Q01DX Z (ip), vehicle: saline): 118 % of control
- T/C (dose: 0.7 mg/kg/injection, schedule: Q01DX Z (ip), vehicle: saline): 121 % of control
- T/C (dose: 1.0 mg/kg/injection, schedule: Q01DX001 (ip), vehicle: saline): 107 % of control
- T/C (dose: 1.0 mg/kg/injection, schedule: Q01DX009 (ip), vehicle: saline): 121 % of control
- T/C (dose: 1.0 mg/kg/injection, schedule: Q01DX Z (ip), vehicle: saline): 157 % of control
- T/C (dose: 2.0 mg/kg/injection, schedule: Q01DX001 (ip), vehicle: saline): 118 % of control
- T/C (dose: 4.0 mg/kg/injection, schedule: Q01DX Z (ip), vehicle: saline): 94 % of control
- T/C (dose: 5.0 mg/kg/injection, schedule: Q01DX001 (ip), vehicle: saline): 158 % of control
- T/C (dose: 5.0 mg/kg/injection, schedule: Q01DX Z (ip), vehicle: methylcellulose (MC)): 102 % of control
- T/C (dose: 10.0 mg/kg/injection, schedule: Q01DX001 (ip), vehicle: saline): 103 % of control

SMILES: CCN(CC)C(C)(C)CCl
- T/C (dose: 100.0 mg/kg/injection, schedule: Q01DX001 (ip), vehicle: saline): 104 % of control

SMILES: C[n+]1ccccc1/C=C/c1ccnc2c(O)cccc12
- T/C (dose: 75.0 mg/kg/injection, schedule: Q01DX001 (ip), vehicle: carboxymethylcellulose (CMC)): 107 % of control
- T/C (dose: 150.0 mg/kg/injection, schedule: Q01DX001 (ip), vehicle: carboxymethylcellulose (CMC)): 102 % of control
